# In US11339161B2, “Triazolo pyridines as modulators of gamma-secretase” (Boehringer Ingelheim International GmbH, priority 2017, dated 2022):
# Like-named read-outs stand apart in the source and are kept apart here.
# Legend:
# Aβ total = Aβ total levels in H4 neuroglioma cells stably expressing human APP695 (MSD electrochemiluminescence); type: cell-based; conditions: selectivity ratio vs. Aβtotal
# Description: Cells were plated out to near confluency. The compounds to be tested were received as 10 mM stocks in 100% DMSO. A dilution series was initially generated in 100% DMSO and then diluted 200-fold in cell culture media such that the tested concentration range was 30 μM to 0.1 nM and the final DMSO concentration was 0.5%. The diluted compounds were incubated with the cells for 22 hours in an incubator at 37° C. and 5% CO2. Aβ42 levels were measured post-incubation from the supernatant of the cells using an Aβ42 specific electrochemiluminescence assay provided by Meso Scale Discovery (Catalog #L21CA-1). The measurement of Aβ42 levels were performed according to the manufacturer's protocol.
# Aβ total levels were likewise determined using a specific electrochemiluminescence assay provided by Meso Scale Discovery (Catalog #L21ZA-1) according to the manufacturer's protocol.
# AURKA (Aurora A) = target: T1, AURKA (Aurora A) (Homo sapiens, UniProt O14965); test: Z'-LYTE SelectScreen biochemical kinase assay AURKA (Aurora A)
# T1 sequence (O14965 1-403): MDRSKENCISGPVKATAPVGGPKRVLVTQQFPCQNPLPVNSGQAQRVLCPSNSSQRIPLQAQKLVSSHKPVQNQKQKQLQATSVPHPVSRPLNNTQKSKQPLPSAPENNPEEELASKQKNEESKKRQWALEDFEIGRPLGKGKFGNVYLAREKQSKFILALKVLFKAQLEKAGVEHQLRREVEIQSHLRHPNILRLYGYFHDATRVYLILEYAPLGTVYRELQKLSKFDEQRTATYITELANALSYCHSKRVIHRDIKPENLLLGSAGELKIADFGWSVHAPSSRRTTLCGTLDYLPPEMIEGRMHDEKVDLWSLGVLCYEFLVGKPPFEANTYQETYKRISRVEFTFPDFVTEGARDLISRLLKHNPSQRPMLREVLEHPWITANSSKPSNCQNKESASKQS
# Text: (§1) Thermo Fisher Scientific SelectScreen™ Biochemical Kinase Profiling Service Z′-LYTE™ Screening Protocol and Assay Conditions Assay Theory
# (§2) The […] biochemical assay employs a fluorescence-based, coupled-enzyme format and is based on the differential sensitivity of phosphorylated and non-phosphorylated peptides to proteolytic cleavage. The peptide substrate is labeled with two fluorophores—one at each end—that make up a FRET pair. In the primary reaction, the kinase transfers the gamma-phosphate of ATP to a single tyrosine, serine or threonine residue in a synthetic FRET-peptide. In the secondary reaction, a site-specific protease recognizes and cleaves non-phosphorylated FRET-peptides. Phosphorylation of FRET-peptides suppresses cleavage by the Development Reagent. Cleavage disrupts FRET between the donor (i.e., coumarin) and acceptor (i.e., fluorescein) fluorophores on the FRET-peptide, whereas uncleaved, phosphorylated FRET-peptides maintain FRET. A ratiometric method, which calculates the ratio (Emission Ratio=Coumarin emission (445 nm)/Fluorescein emission (520 nm)) of donor emission to acceptor emission after excitation of the donor fluorophore at 400 nm, is used to quantitate reaction progress, as shown in the equation below. A significant benefit of this ratiometric method for quantitating reaction progress is the elimination of well-to-well variations in FRET-peptide concentration and signal intensities. As a result, the assay yields very high Z′-factor values (>0.7) at a low percent phosphorylation. Both cleaved and uncleaved FRET-peptides contribute to the fluorescence signals and therefore to the Emission Ratio. The extent of phosphorylation of the FRET-peptide can be calculated from the Emission Ratio. The Emission Ratio will remain low if the FRET-peptide is phosphorylated (i.e., no kinase inhibition) and will be high if the FRET-peptide is non-phosphorylated (i.e., kinase inhibition).
# (§3) The Test Compounds are screened in 1% DMSO (final) in the well. For 10 point titrations, 3-fold serial dilutions are conducted from the starting concentration of the customer's choosing.
# (§4) All Peptide/Kinase Mixtures are diluted to a 2× working concentration in the appropriate Kinase Buffer (see section Kinase Specific Assay Conditions for a complete description).
# (§5) All ATP Solutions are diluted to a 4× working concentration in Kinase Buffer (50 mM HEPES pH 7.5, 0.01% BRIJ-35, 10 mM MgCl2, 1 mM EGTA). ATP Km apparent is previously determined using a Z″-LYTE assay.
# (§6) The Development Reagent is diluted in Development Buffer (see section Kinase-Specific Assay Conditions—Direct and Cascade for a complete description).
# (§7) Bar-coded Corning, low volume NBS, black 384-well plate (Corning Cat. #4514) • 1. 100 nL—100× Test Compound in 100% DMSO • 2. 2.4 μL—Kinase buffer • 3. 5 μL—2× Peptide/Kinase Mixture • 4. 2.5 μL—4×ATP Solution • 5. 30—second plate shake • 6. 60—minute Kinase Reaction incubation at room temperature • 7. 5 μL—Development Reagent Solution • 8. 30—second plate shake • 9. 60—minute Development Reaction incubation at room temperature • 10. Read on fluorescence plate reader and analyze the data Z′-LYTE Assay Controls
# (§8) SelectScreen Kinase Profiling Service uses XLfit from IDBS. The dose response curve is curve fit to model number 205 (sigmoidal dose-response model).
# The 2×AURKA (Aurora A)/Ser/Thr 01 mixture is prepared in 50 mM HEPES pH 7.5, 0.01% BRIJ-35, 10 mM MgCl2, 1 mM EGTA. The final 10 μL Kinase Reaction consists of 0.91-8.56 ng AURKA (Aurora A) and 2 μM Ser/Thr 01 in 50 mM HEPES pH 7.5, 0.01% BRIJ-35, 10 mM MgCl2, 1 mM EGTA. After the 1 hour Kinase Reaction incubation, 5 μL of a 1:4096 dilution of Development Reagent A is added.
# FLT4 (VEGFR3) = FLT4 (VEGFR3) (Homo sapiens, UniProt P35916); test: Z'-LYTE SelectScreen biochemical kinase assay FLT4 (VEGFR3)
# FLT4 (VEGFR3), sequence (P35916 25-1363): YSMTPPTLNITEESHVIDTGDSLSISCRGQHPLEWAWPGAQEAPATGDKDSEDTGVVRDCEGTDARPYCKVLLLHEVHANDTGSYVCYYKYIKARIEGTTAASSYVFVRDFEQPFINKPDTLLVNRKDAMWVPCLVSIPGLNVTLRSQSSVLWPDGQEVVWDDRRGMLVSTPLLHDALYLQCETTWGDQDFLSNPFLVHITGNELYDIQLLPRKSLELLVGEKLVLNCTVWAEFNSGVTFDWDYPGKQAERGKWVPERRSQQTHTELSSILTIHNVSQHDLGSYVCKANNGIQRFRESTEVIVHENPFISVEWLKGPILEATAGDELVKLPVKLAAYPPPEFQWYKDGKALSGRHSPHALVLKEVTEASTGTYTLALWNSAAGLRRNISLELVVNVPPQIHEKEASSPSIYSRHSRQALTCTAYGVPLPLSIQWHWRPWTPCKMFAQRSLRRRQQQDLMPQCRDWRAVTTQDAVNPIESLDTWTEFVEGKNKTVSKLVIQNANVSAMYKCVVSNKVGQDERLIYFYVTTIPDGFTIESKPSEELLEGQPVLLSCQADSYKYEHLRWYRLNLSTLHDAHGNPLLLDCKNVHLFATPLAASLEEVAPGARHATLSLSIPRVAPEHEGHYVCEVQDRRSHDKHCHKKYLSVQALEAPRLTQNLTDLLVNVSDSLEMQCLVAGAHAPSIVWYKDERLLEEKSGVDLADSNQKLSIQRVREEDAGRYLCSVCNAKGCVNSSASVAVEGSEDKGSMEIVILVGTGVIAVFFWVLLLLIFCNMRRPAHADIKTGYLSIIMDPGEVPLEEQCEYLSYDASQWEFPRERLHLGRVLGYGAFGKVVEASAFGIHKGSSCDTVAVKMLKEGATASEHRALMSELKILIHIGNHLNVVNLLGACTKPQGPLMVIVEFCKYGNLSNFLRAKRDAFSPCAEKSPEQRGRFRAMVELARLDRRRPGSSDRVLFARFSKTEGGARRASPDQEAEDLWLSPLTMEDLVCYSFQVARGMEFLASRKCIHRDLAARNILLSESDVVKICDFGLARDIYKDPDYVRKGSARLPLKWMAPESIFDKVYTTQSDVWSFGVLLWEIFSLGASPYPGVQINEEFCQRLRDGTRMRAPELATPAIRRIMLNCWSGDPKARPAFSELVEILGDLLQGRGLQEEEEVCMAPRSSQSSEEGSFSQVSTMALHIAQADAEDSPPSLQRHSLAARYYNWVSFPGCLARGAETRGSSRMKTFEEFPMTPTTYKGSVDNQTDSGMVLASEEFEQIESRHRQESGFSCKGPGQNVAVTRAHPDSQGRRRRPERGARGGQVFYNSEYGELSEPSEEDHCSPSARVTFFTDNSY
# Text: as §1, §2, §3, §4, §5, §6, §7, §8
# The 2×FLT4 (VEGFR3)/Tyr 04 mixture is prepared in 50 mM HEPES pH 7.5, 0.01% BRIJ-35, 10 mM MgCl2, 4 mM MnCl2, 1 mM EGTA, 2 mM DTT. The final 10 μL Kinase Reaction consists of 2-10.5 ng FLT4 (VEGFR3) and 2 μM Tyr 04 in 50 mM HEPES pH 7.5, 0.01% BRIJ-35, 10 mM MgCl2, 2 mM MnCl2, 1 mM EGTA, 1 mM DTT. After the 1 hour Kinase Reaction incubation, 5 μL of a 1:64 dilution of Development Reagent B is added.
# [1] = 10 μmolar compound concentration, ATP at Km app, read-out: AURKA (Aurora A) inhibition
# [2] = read-out: % Inhibition mean AURKA (Aurora A)
# [3] = read-out: % Inhibition mean FLT4 (VEGFR3)
# [4] = 10 μmolar compound concentration, ATP at Km app, read-out: FLT4 (VEGFR3) inhibition
inhibition at 10 µM (AURKA (Aurora A); [1]),inhibition at 10 µM (AURKA (Aurora A); [2]),inhibition at 10 µM (FLT4 (VEGFR3); [3]),inhibition at 10 µM (FLT4 (VEGFR3); [4]),inhibition at 10 µM (AURKA (Aurora A); read-out: % Inhibition mean),inhibition at 10 µM (FLT4 (VEGFR3); read-out: % Inhibition mean),SMILES,Ratio AβTotal IC50/Aβ42 IC50 (Aβ total; Table 4a),"Ratio AβTotal IC50/Aβ42 IC50 (Aβ total; prior art compounds, Table 4b)"
< 40%,25%,16%,< 40%,–,–,"CCn1ncc2c1CCC(Nc1nc3c(-c4cccnc4OC)cccn3n1)C2 (stereo not drawn) [Example 69, (1-Ethyl-4,5,6,7-tetrahydro-1H-indazol-5-yl)-[8-(2-methoxy-pyridin-3-yl)-[1,2,4]triazolo[1,5-a]pyridine-2-yl]-amine]",60,–
< 40%,39%,52%,40 to 80%,–,–,"CCn1ncc2c1CCC(Nc1nc3c(-c4cnccc4OC)cccn3n1)C2 (stereo not drawn) [Example 68, (1-Ethyl-4,5,6,7-tetrahydro-1H-indazol-5-yl)-[8-(4-methoxy-pyridin-3-yl)-[1,2,4]triazolo[1,5-a]pyridine-2-yl]-amine]",241,–
< 40%,-21%,24%,< 40%,–,–,"CCn1ncc2c1CC[C@H](Nc1nc3c(-c4ccc(F)c(Cl)c4)cccn3n1)C2 [Example S-61, (S)-[8-(3-Chloro-4-fluoro-phenyl)-[1,2,4]triazolo[1,5-a]pyridine-2-yl]-(1-ethyl-4,5,6,7-tetrahydro-1H-indazol-5-yl)-amine]",42,–
< 40%,-21%,39%,< 40%,–,–,"CCn1ncc2c1CCC(Nc1nc3c(-c4cccc(Cl)c4)cccn3n1)C2 (stereo not drawn) [Example 59, [8-(3-Chloro-phenyl)-[1,2,4]triazolo[1,5-a]pyridine-2-yl]-(1-ethyl-4,5,6,7-tetrahydro-1H-indazol-5-yl)-amine]",49,–
> 80%,85%,50%,40 to 80%,–,–,"CCn1ncc2c1CCC(Nc1nc3c(-c4cncc(Cl)c4)cccn3n1)C2 (stereo not drawn) [Example 73, [8-(5-Chloro-pyridin-3-yl)-[1,2,4]triazolo[1,5-a]pyridine-2-yl]-(1-ethyl-4,5,6,7-tetrahydro-1H-indazol-5-yl)-amine]",420,–
40 to 80%,51%,28%,< 40%,–,–,"CCn1ncc2c1CCC(Nc1nc3c(-c4cncc(OC)c4)cccn3n1)C2 (stereo not drawn) [Example 70, (1-Ethyl-4,5,6,7-tetrahydro-1H-indazol-5-yl)-[8-(5-methoxy-pyridin-3-yl)-[1,2,4]triazolo[1,5-a]pyridine-2-yl]-amine]",60,–

# Second part, the molecule before the results:
SMILES,inhibition at 10 µM (AURKA (Aurora A); [1]),inhibition at 10 µM (AURKA (Aurora A); [2]),inhibition at 10 µM (FLT4 (VEGFR3); [3]),inhibition at 10 µM (FLT4 (VEGFR3); [4]),inhibition at 10 µM (AURKA (Aurora A); read-out: % Inhibition mean),inhibition at 10 µM (FLT4 (VEGFR3); read-out: % Inhibition mean),Ratio AβTotal IC50/Aβ42 IC50 (Aβ total; Table 4a),"Ratio AβTotal IC50/Aβ42 IC50 (Aβ total; prior art compounds, Table 4b)"
"CCn1ncc2c1CCC(Nc1nc3c(-c4ccccc4C)cccn3n1)C2 (stereo not drawn) [Example 56, (1-Ethyl-4,5,6,7-tetrahydro-1H-indazol-5-yl)-[8-(2-methyl-phenyl)-[1,2,4]triazolo[1,5-a]pyridine-2-yl]-amine]",< 40%,27%,35%,–,–,–,49,–
"CC1(C)C(=O)Nc2ccc(Nc3nc4c(-c5cccc(F)c5)cccn4n3)cc21 [Cpd. 263 in WO09155551, reference compound]",> 80%,–,–,> 80%,99%,103%,–,2
"Fc1cccc(-c2cccn3nc(Nc4ccc5[nH]cnc5c4)nc23)c1 [Cpd. 293 in WO09155551, reference compound]",> 80%,–,–,> 80%,89%,94%,–,1
"Cc1cc(F)ccc1-c1cccn2nc(NC3CCc4cnn(C)c4C3)nc12 (stereo not drawn) [Example 40, [8-(4-Fluoro-2-methyl-phenyl)-[1,2,4]triazolo[1,5-a]pyridine-2-yl]-(1-methyl-4,5,6,7-tetrahydro-1H-indazol-6-yl)-amine]",< 40%,13%,16%,< 40%,–,–,1,–
"CCCn1ncc2c1CCC(Nc1nc3c(-c4ccc(F)cc4C)cccn3n1)C2 (stereo not drawn) [Example 43, [8-(4-fluoro-2-methyl-phenyl)-[1,2,4]triazolo[1,5-a]pyridine-2-yl]-(1-propyl-4,5,6,7-tetrahydro-1H-indazol-5-yl)-amine]",< 40%,-17%,11%,< 40%,–,–,48,–
"Cc1cc(F)ccc1-c1cccn2nc(NC3CCc4c(cnn4C(C)C)C3)nc12 (stereo not drawn) [Example 44, [8-(4-fluoro-2-methyl-phenyl)-[1,2,4]triazolo[1,5-a]pyridine-2-yl]-(1-isopropyl-4,5,6,7-tetrahydro-1H-indazol-5-yl)-amine]",< 40%,7%,43%,40 to 80%,–,–,64,–
"Cc1cc(F)ccc1-c1cccn2nc(NC3CCc4c(cnn4C)C3)nc12 (stereo not drawn) [Example 10, [8-(4-fluoro-2-methyl-phenyl)-[1,2,4]triazolo[1,5-a]pyridine-2-yl]-(1-methyl-4,5,6,7-tetrahydro-1H-indazol-5-yl)-amine]",< 40%,4%,22%,< 40%,–,–,27,–
"Cc1cc(F)ccc1-c1cccn2nc(NC3CCc4c(cnn4CC(C)C)C3)nc12 (stereo not drawn) [Example 45, [8-(4-fluoro-2-methyl-phenyl)-[1,2,4]triazolo[1,5-a]pyridine-2-yl]-(1-isobutyl-4,5,6,7-tetrahydro-1H-indazol-5-yl)-amine]",< 40%,-13%,33%,< 40%,–,–,4,–
